# Source: patent US20220259221A1, “CANNABINOID DERIVATIVES” (CANOPY GROWTH CORPORATION, priority 2019, published 2022)
# Legend:
# human CB2 receptor = biological target: T1, human CB2 receptor (Homo sapiens, UniProt P34972); experiment: CB2 radioligand ([3H]CP55,940) competitive binding assay; conditions: for Selectivity CB2: fold difference in binding between CB1 and CB2, shown in the column of the receptor with higher affinity, 1.00 in both = about the same affinity
# T1 construct: host or cells: CHO-K1 (Chinese hamster ovary) cells, stably transfected; membranes prepared in house
# T1 sequence (P34972 whole entry): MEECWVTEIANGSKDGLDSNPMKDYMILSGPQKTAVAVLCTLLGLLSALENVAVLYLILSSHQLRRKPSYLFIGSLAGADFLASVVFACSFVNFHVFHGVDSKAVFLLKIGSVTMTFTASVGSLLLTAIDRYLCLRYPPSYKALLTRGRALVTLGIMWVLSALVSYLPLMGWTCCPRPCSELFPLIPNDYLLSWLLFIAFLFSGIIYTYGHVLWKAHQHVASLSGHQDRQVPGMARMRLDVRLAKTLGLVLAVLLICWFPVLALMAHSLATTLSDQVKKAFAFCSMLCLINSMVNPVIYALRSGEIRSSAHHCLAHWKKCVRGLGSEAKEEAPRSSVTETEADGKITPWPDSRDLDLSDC
# Method: Compounds of the present disclosure were tested for CB1 receptor binding affinity and for CB2 receptor binding affinity. As used herein, “binding affinity” is represented by the IC50 value, which was experimentally determined as described herein. The lower the IC50 value the higher the binding affinity. A compound of the present disclosure may be said to have “binding selectivity” if it has a higher binding affinity for one receptor compared to the other.
# The membranes were prepared from CHO-K1 (Chinese hamster ovary) cells stably transfected with the human CB2 receptor (Cat. #ES-111-C; Perkin Elmer, Boston, Mass.). The cells were grown adherently and maintained in Ham's F12 medium containing 10% fetal bovine serum (FBS), penicillin, streptomycin and geneticin (G418) at 37° C. in a humid atmosphere of 5% CO2 following the manufacturer's instructions.
# For membrane preparation the cells were washed with PBS and scraped off the plates in cold homogenization buffer (25 mM HEPES (pH 7.4), 2 mM EDTA) containing protease inhibitor cocktail (Sigma Cat. #P8340). The cell suspension was homogenized with a Pro-PK-01200D Polytron Homogenizer (Pro Scientific) and then centrifuged for 30 min at 120,000× g. The supernatant was discarded and the pellet was re-suspended in the homogenization buffer and stored at −80° C. until the time of use.
# In this experiment, 3H radiolabeled CP55,940, i.e. [3H]CP55,940 (Perkin Elmer, Boston, Mass.), was used as a radioligand for the CB2 receptor to determine the binding affinity of compounds for the CB2 receptor (Scheme 4; above).
# The competition binding experiments (single dose and dose-response) were performed by incubating 0.6 nM of [3H]CP55,940 (specific activity 101 Ci/mmol, Perkin Elmer) and different concentrations of compounds disclosed herein with membranes prepared as above from CHO-K1 cells expressing human CB2 receptor (1 μg of protein/well), 50 mM Tris-HCl (pH 7.4), 5 mM MgCl2, 1 mM CaCl2, and 2 mg/mL BSA.
# For the single dose experiments, the compound stocks (usually 10 mM in DMSO) were diluted to working stocks in the binding buffer to give the final compound concentrations of 10 μM and 1 μM. For the dose-response experiments the test compounds were sequentially diluted to provide the desired concentration range for the IC50 determination. In each case the compounds were pre-incubated with the membrane for 20 min, before adding the radioligand.
# After incubation with the radioligand for 60 min at 37° C., the incubation was terminated by rapid filtration of assay mixture through MultiScreen®HTS^+ 96-well filter plates (Millipore, Cat. #MSFCNXB), pre-soaked for 60 min with 50 mM Tris-HCl (pH 7.4) containing 0.33% polyethylenimine (PEI). The nonspecific binding (NSB) was determined in the presence of 10 μM unlabelled CP55,940. After drying the filter plate at 50° C. for at least 60 min, the filter-bound radioactivity was determined by scintillation spectrometry using the 1450 MicroBeta Plate Counter (Perkin Elmer, Boston, Mass.). From the dose-response experiments, the IC50 values were determined (see Table 1, CB2 IC50).
# human CB1 receptor [1] = biological target: T2, human CB1 receptor (Homo sapiens, UniProt P21554); experiment: biochemical; assay type: binding; parameters: host or cells: CHO-K1 (Chinese hamster ovary) cells, stably transfected; membranes prepared in house; conditions: for Selectivity CB1: fold difference in binding between CB1 and CB2, shown in the column of the receptor with higher affinity, 1.00 in both = about the same affinity
# T2 sequence (P21554 whole entry): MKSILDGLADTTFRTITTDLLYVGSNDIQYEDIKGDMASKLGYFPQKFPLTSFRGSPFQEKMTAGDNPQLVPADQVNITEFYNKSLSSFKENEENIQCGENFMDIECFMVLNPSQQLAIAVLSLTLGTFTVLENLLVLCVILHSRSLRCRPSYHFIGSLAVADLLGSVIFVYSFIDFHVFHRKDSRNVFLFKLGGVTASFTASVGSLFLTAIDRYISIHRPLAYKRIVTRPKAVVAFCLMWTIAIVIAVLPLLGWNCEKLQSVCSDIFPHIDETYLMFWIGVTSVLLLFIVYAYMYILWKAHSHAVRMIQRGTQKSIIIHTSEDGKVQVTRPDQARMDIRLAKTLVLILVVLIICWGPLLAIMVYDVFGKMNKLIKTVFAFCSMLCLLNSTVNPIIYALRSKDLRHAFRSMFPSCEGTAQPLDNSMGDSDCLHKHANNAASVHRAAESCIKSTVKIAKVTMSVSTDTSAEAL
# human CB1 receptor [2] = biological target: T2, human CB1 receptor; experiment: PathHunter β-Arrestin functional assay, CB1 receptor, antagonist mode; assay type: cell-based
# From the text: (§1) In the PathHunter® β-Arrestin system from DiscoveRx (Eurofins, Fremont, Calif.), a small peptide, the ProLink™ (PK), is fused to the intracellular sequence of a GPCR target, and a complementing peptide, the enzyme acceptor (EA) fragment, is fused to β-arrestin. After binding to its specific ligand, the GPCR target recruits β-arrestin, forcing the complementation of the two β-galactosidase enzyme fragments (EA and PK) to produce a functional β-galactosidase enzyme. The enzyme activity, and thus the amount of ligand bound to the GPCR, is detected with a single addition of a reagent cocktail to lyse the cells and produce a chemiluminescent signal before being analyzed using a traditional plate reader.
# (§2) PathHunter® CHO-K1 CNR1 β-Arrestin cells (DiscoverRx, cat. Number 93-0959C2) stably expressing CB1 receptor (CB1R) were grown in Ham's F12 medium containing 10% fetal bovine serum (FBS), 1% penicillin/streptomycin, 300 μg/mL Hygromycin B and 800 μg/mL geneticin (G418) and maintained in 37° C. incubators at 5% CO2. […]
# (§3) The incubation was terminated by adding the detection reagent (19 parts of 1% CHAPS, 5 parts Emerald-II and 1 part Galacton-Star), equivalent to 50% of the assay volume to each wells. Plates were incubated for 1 hour in the dark at room temperature, followed by chemiluminescence detection using a microplate reader.
# (§4) Data were analysed by generating nonlinear regression curves. […]
# human CB1 receptor [3] = biological target: T2, human CB1 receptor; experiment: PathHunter β-Arrestin functional assay, CB1 receptor, agonist mode; assay type: cell-based
# From the text: as §1, §2, §3, §4
Structure (SMILES),IC50 (human CB2 receptor) [nM],Selectivity CB2 (human CB2 receptor) [fold],IC50 (human CB1 receptor [1]) [nM],Selectivity CB1 (human CB1 receptor [1]) [fold],IC50 (human CB1 receptor [2]) [µM],"relative inhibition in comparison to rimonabant (human CB1 receptor [2]; antagonist mode, normalized to rimonabant)",EC50 (human CB1 receptor [3]) [nM],"relative efficacy in comparison to CP55,940 (human CB1 receptor [3]; agonist mode, normalized to CP55,940)"
"CCCCCc1cc2c(c3c1C(=O)OCO3)[C@@H]1C=C(C)CC[C@H]1C(C)(C)O2 [Compound 1b, 8,8,11-trimethyl-5-pentyl-8a,9,10,12a-tetrahydro-4H,8H-benzo[c][1,3]dioxino[4,5-f]chromen-4-one]",< 500,1.80,500 to 990,,,,,
"CCCCCc1cc2c(c3c1C(=O)OC(C)(C)O3)[C@@H]1C=C(C)CC[C@H]1C(C)(C)O2 [Compound 2b, 2,2,8,8,11-pentamethyl-5-pentyl-8a,9,10,12a-tetrahydro-4H,8H-benzo[c][1,3]dioxino[4,5-f]chromen-4-one]",< 500,1.03,< 500,,,,,
"CCCCCc1cc2c(c3c1C(=O)OC(c1ccccc1)O3)[C@@H]1C=C(C)CC[C@H]1C(C)(C)O2 (stereo partly shown) [Compound 3b, 8,8,11-trimethyl-5-pentyl-2-phenyl-8a,9,10,12a-tetrahydro-4H,8H-benzo[c][1,3]dioxino[4,5-f]chromen-4-one]",1000 to 4990,,1000 to 4990,1.62,,,,
"CCCCCc1cc2c(c3c1C(=O)OC(CC(C)=O)(c1ccccc1)O3)[C@@H]1C=C(C)CC[C@H]1C(C)(C)O2 (stereo partly shown) [Compound 12b, 8,8,11-trimethyl-2-(2-oxopropyl)-5-pentyl-2-phenyl-8a,9,10,12a-tetrahydro-4H,8H-benzo[c][1,3]dioxino[4,5-f]chromen-4-one]",> 5000,1.33,> 5000,,,,,
"CCCCCc1cc2c(c3c1C(=O)OC(CC(C)=O)(c1ccc(F)cc1)O3)[C@@H]1C=C(C)CC[C@H]1C(C)(C)O2 (stereo partly shown) [Compound 13b, 2-(4-fluorophenyl)-8,8,11-trimethyl-2-(2-oxopropyl)-5-pentyl-8a,9,10,12a-tetrahydro-4H,8H-benzo[c][1,3]dioxino[4,5-f]chromen-4-one]",1000 to 4990,1.00,1000 to 4990,1.00,,,,
"CCCCCc1cc2c(c3c1C(=O)OC(CC(C)=O)O3)[C@@H]1C=C(C)CC[C@H]1C(C)(C)O2 (stereo partly shown) [Compound 14b, 8,8,11-trimethyl-2-(2-oxopropyl)-5-pentyl-8a,9,10,12a-tetrahydro-4H,8H-benzo[c][1,3]dioxino[4,5-f]chromen-4-one]",1000 to 4990,,1000 to 4990,2.69,,,,
"CCCCCc1cc2c(c3c1C(=O)OC(C)O3)[C@@H]1C=C(C)CC[C@H]1C(C)(C)O2 (stereo partly shown) [Compound 16b, 2,8,8,11-tetramethyl-5-pentyl-8a,9,10,12a-tetrahydro-4H,8H-benzo[c][1,3]dioxino[4,5-f]chromen-4-one]",< 500,,< 500,1.50,~3,about 35%,~252,about 7%
"CCCCCc1cc2c(c3c1C(=O)OC(CC)O3)[C@@H]1C=C(C)CC[C@H]1C(C)(C)O2 (stereo partly shown) [Compound 17b, 2-ethyl-8,8,11-trimethyl-5-pentyl-8a,9,10,12a-tetrahydro-4H,8H-benzo[c][1,3]dioxino[4,5-f]chromen-4-one]",< 500,12.73,1000 to 4990,,,,,
"CCCCCc1cc2c(c3c1C(=O)OC(CC(C)=O)(c1ccc(OC)cc1)O3)[C@@H]1C=C(C)CC[C@H]1C(C)(C)O2 (stereo partly shown) [Compound 21b, 2-(4-methoxyphenyl)-8,8,11-trimethyl-2-(2-oxopropyl)-5-pentyl-8a,9,10,12a-tetrahydro-4H,8H-benzo[c][1,3]dioxino[4,5-f]chromen-4-one]",1000 to 4990,1.00,1000 to 4990,1.00,,,,
"CCCCCc1cc2c(c3c1C(=O)OC(CC(C)=O)(c1ccc(Cl)cc1)O3)[C@@H]1C=C(C)CC[C@H]1C(C)(C)O2 (stereo partly shown) [Compound 23b, 2-(4-chlorophenyl)-8,8,11-trimethyl-2-(2-oxopropyl)-5-pentyl-8a,9,10,12a-tetrahydro-4H,8H-benzo[c][1,3]dioxino[4,5-f]chromen-4-one]",1000 to 4990,1.00,1000 to 4990,1.00,,,,
